Patent publication US20090197880A1 (Genelabs Technologies, Inc., priority 2007, published 2009)

Test: HCV replicon assay (luciferase) in ET (Huh-lucubineo-ET) cell line
Format: cell-based
Settings: Hepatitis C virus; tested at 10 μM; inhibition of replication relative to no compound control; ET replicon cells, luciferase 48-72 hours; read-out: % inhition at 10 μM

First: Oc1nn(Cc2cc(-c3ccc(C(F)(F)F)cc3C(F)(F)F)no2)cc2nc(-c3cccc(F)c3F)nc1-2 [Compound 262, 6-[3-(2,4-Bis-trifluoromethyl-phenyl)-isoxazol-5-ylmethyl]-2-(2,3-difluoro-phenyl)-6H-imidazo[4,5-d]pyridazin-4-ol]
Second: Fc1cc(C(F)(F)F)ccc1-c1cc(Cn2cc3nc(-c4ccccc4F)nc-3cn2)on1 [Compound 279, 2-(2-Fluoro-phenyl)-5-[3-(2-fluoro-4-trifluoromethyl-phenyl)-isoxazol-5-ylmethyl]-5H-imidazo[4,5-d]pyridazine]
The inhibition at 10 µM of the first is lower: 96.6% for the first, 98.9% for the second.

First: COc1ccc(-c2cc(Cn3cc4nc(-c5cccc(F)c5F)nc-4cn3)on2)c(C(=O)O)c1 [Compound 266, 2-{5-[2-(2,3-Difluoro-phenyl)-imidazo[4,5-d]pyridazin-5-ylmethyl]-isoxazol-3-yl}-5-methoxy-benzoic Acid]
Second: O=C(O)CCCOc1ccc(-c2cc(Cn3cc4nc(-c5cccc(F)c5F)nc-4cn3)on2)cc1 [Compound 274, 4-(4-{5-[2-(2,3-Difluoro-phenyl)-imidazo[4,5-d]pyridazin-5-ylmethyl]-isoxazol-3-yl}-phenoxy)-butyric Acid]
The inhibition at 10 µM of the first is lower: 10% for the first, 54.9% for the second.

Compared with `COc1ccc(-c2ccc(-c3cc(Cn4cc5nc(-c6cccc(F)c6F)nc-5cn4)on3)cc2)cc1` [Compound 268, 2-(2,3-Difluoro-phenyl)-5-[3-(4′-methoxy-biphenyl-4-yl)-isoxazol-5-ylmethyl]-5H-imidazo[4,5-d]pyridazine], `CCCOc1ccc(-c2ccc(-c3cc(Cn4cc5nc(-c6cccc(F)c6F)nc-5cn4)on3)cc2)cc1` [Compound 269, 2-(2,3-Difluoro-phenyl)-5-[3-(4′-propoxy-biphenyl-4-yl)-isoxazol-5-ylmethyl]-5H-imidazo[4,5-d]pyridazine] is lower in inhibition at 10 µM: 93.7% for the first, 36.6% for the second.

Compared with `O=C(COc1ccc(-c2cc(Cn3cc4nc(-c5cccc(F)c5F)nc-4cn3)on2)cc1)NC1CC1` [Compound 271, N-Cyclopropyl-2-(4-{5-[2-(2,3-difluoro-phenyl)-imidazo[4,5-d]pyridazin-5-ylmethyl]-isoxazol-3-yl}-phenoxy)-acetamide], `CC(=O)OCCCOc1ccc(-c2cc(Cn3cc4nc(-c5cccc(F)c5F)nc-4cn3)on2)cc1` [Compound 272, Acetic Acid 3-(4-{5-[2-(2,3-difluoro-phenyl)-imidazo[4,5-d]pyridazin-5-ylmethyl]-isoxazol-3-yl}-phenoxy)-propyl Ester] is higher in inhibition at 10 µM: 2.27% for the first, 91.1% for the second.

Compared with `Fc1cccc(-c2nc3cnn(Cc4cc(-c5ccc(OCCCN6CCOCC6)cc5)no4)cc-3n2)c1F` [Compound 273, 2-(2,3-Difluoro-phenyl)-5-{3-[4-(3-morpholin-4-yl-propoxy)-phenyl]-isoxazol-5-ylmethyl}-5H-imidazo[4,5-d]pyridazine], `CCCCc1ccc(-c2cc(Cn3cc4nc(-c5ccccc5F)nc-4cn3)on2)cc1` [Compound 277, 5-[3-(4-Butyl-phenyl)-isoxazol-5-ylmethyl]-2-(2-fluoro-phenyl)-5H-imidazo[4,5-d]pyridazine] is higher in inhibition at 10 µM: 94% for the first, 99.9% for the second.

First: Fc1ccccc1-c1nc2cnn(Cc3cc(-c4cccc(C(F)(F)F)c4)no3)cc-2n1 [Compound 276, 2-(2-Fluoro-phenyl)-5-[3-(3-trifluoromethyl-phenyl)-isoxazol-5-ylmethyl]-5H-imidazo[4,5-d]pyridazine]
Second: Fc1ccccc1-c1nc2cnn(Cc3cc(-c4ccc(C(F)(F)F)cc4)no3)cc-2n1 [Compound 278, 2-(2-Fluoro-phenyl)-5-[3-(4-trifluoromethyl-phenyl)-isoxazol-5-ylmethyl]-5H-imidazo[4,5-d]pyridazine]
The inhibition at 10 µM of the first is lower: 60% for the first, 99.7% for the second.

With `Fc1ccccc1-c1nc2cnn(Cc3cc(-c4ccc(I)cc4)no3)cc-2n1` [Compound 282, 2-(2-Fluoro-phenyl)-5-[3-(4-iodo-phenyl)-isoxazol-5-ylmethyl]-5H-imidazo[4,5-d]pyridazine] the inhibition at 10 µM was 83.4%.
